Experimental data published in PubChem BioAssay AID248 (DTP/NCI, 2004).
Several values for one entry are separate records, joined by “and”; a condition that tells them apart may be missing. Equal entries are not always repeated. Toxic doses and inconclusive results are not listed. No stated cut-off is given here; in the data, active means T/C of 150% or more; inactive means T/C below 125%.

System: L1210 leukemia ip in BDF1 mice, survival T/C
Assay: NCI In Vivo Anticancer Drug Screen. Data for tumor model L1210 Leukemia (intraperitoneal) in B6D2F1 (BDF1) mice
Conditions: endpoint: mean survival time, higher = longer survival
Procedure, shortened: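 Transplantable tumor model; survival measured in treated vs vehicle control mice. Value = treated/control.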

[1] = dose: 100.0 mg/kg/injection, schedule: Q01DX001 (ip), vehicle: carboxymethylcellulose (CMC)
[2] = dose: 200.0 mg/kg/injection, schedule: Q01DX001 (ip), vehicle: carboxymethylcellulose (CMC)
[3] = dose: 400.0 mg/kg/injection, schedule: Q01DX001 (ip), vehicle: carboxymethylcellulose (CMC)
[4] = dose: 100.0 mg/kg/injection, schedule: Q04DX003 (ip), vehicle: Klucel (hydroxypropylcellulose) (HPC)
[5] = dose: 200.0 mg/kg/injection, schedule: Q04DX003 (ip), vehicle: Klucel (hydroxypropylcellulose) (HPC)
[6] = dose: 400.0 mg/kg/injection, schedule: Q04DX003 (ip), vehicle: Klucel (hydroxypropylcellulose) (HPC)
[7] = dose: 100.0 mg/kg/injection, schedule: Q01DX009 (ip), vehicle: Klucel (hydroxypropylcellulose) (HPC)
[8] = dose: 100.0 mg/kg/injection, schedule: Q04DX002 (ip), vehicle: Klucel (hydroxypropylcellulose) (HPC)
[9] = dose: 200.0 mg/kg/injection, schedule: Q01DX009 (ip), vehicle: Klucel (hydroxypropylcellulose) (HPC)
[10] = dose: 200.0 mg/kg/injection, schedule: Q04DX002 (ip), vehicle: Klucel (hydroxypropylcellulose) (HPC)
[11] = dose: 400.0 mg/kg/injection, schedule: Q04DX002 (ip), vehicle: Klucel (hydroxypropylcellulose) (HPC)
[12] = dose: 400.0 mg/kg/injection, schedule: Q01DX009 (ip), vehicle: Klucel (hydroxypropylcellulose) (HPC)
[13] = dose: 100.0 mg/kg/injection, schedule: Q04DX003 (ip), vehicle: saline
[14] = dose: 200.0 mg/kg/injection, schedule: Q04DX003 (ip), vehicle: saline
[15] = dose: 100.0 mg/kg/injection, schedule: Q04DX003 (ip), vehicle: saline with Tween-80
[16] = dose: 200.0 mg/kg/injection, schedule: Q04DX003 (ip), vehicle: saline with Tween-80
[17] = dose: 400.0 mg/kg/injection, schedule: Q04DX003 (ip), vehicle: saline with Tween-80

Measured: T/C

Cc1nc(N)nc(N)c1-c1ccccc1
inactive: [1] 100 % of control | [2] 94 % of control | [3] 92 % of control

CCOC(=O)/C(C#N)=C(\C)CCc1ccccc1
inactive: dose: 75.0 mg/kg/injection, schedule: Q01DX001 (ip), vehicle: saline 104 % of control | dose: 150.0 mg/kg/injection, schedule: Q01DX001 (ip), vehicle: saline 101 % of control | dose: 300.0 mg/kg/injection, schedule: Q01DX001 (ip), vehicle: saline 101 % of control

Cn1cc(/C=C/C(N)=O)c2nccnc21
inactive: dose: 1.56 mg/kg/injection, schedule: Q01DX009 (ip), vehicle: water 94 % of control | dose: 3.12 mg/kg/injection, schedule: Q01DX009 (ip), vehicle: water 92 % of control | dose: 6.25 mg/kg/injection, schedule: Q01DX009 (ip), vehicle: water 107 % of control | dose: 12.5 mg/kg/injection, schedule: Q01DX009 (ip), vehicle: water 103 % of control | dose: 25.0 mg/kg/injection, schedule: Q01DX009 (ip), vehicle: water 100 % of control and 110 % of control

CC(C)(C)c1cccc(C(=O)O)c1O
inactive: [1] 97 % of control | [2] 97 % of control | [3] 90 % of control

O=C(Nc1cccc(C2=NCCN2)c1)c1ccc(-c2ccc(C(=O)Nc3cccc(C4=NCCN4)c3)cc2)cc1
inactive: dose: 50.0 mg/kg/injection, schedule: Q01DX Z (ip), vehicle: carboxymethylcellulose (CMC) 101 % of control | dose: 65.0 mg/kg/injection, schedule: Q01DX Z (ip), vehicle: methylcellulose (MC) 121 % of control | dose: 100.0 mg/kg/injection, schedule: Q01DX Z (ip), vehicle: carboxymethylcellulose (CMC) 120 % of control | dose: 100.0 mg/kg/injection, schedule: Q01DX Z (ip), vehicle: methylcellulose (MC) 113 % of control | dose: 400.0 mg/kg/injection, schedule: Q01DX Z (ip), vehicle: carboxymethylcellulose (CMC) 117 % of control

CCCCCCCCCCCCCCOc1ccc(C(=O)CC(=O)OC)cc1
inactive: [4] 90 % of control | [5] 98 % of control | [6] 90 % of control

O=C(Cc1c(F)c(F)c(F)c(F)c1F)Nc1ccc(-c2nc3ccccc3s2)cc1
inactive: dose: 100.0 mg/kg/injection, schedule: Q01DX001 (ip), vehicle: Klucel (hydroxypropylcellulose) (HPC) 87 % of control | [7] 115 % of control | [8] 104 % of control and 115 % of control | [4] 95 % of control | dose: 200.0 mg/kg/injection, schedule: Q01DX001 (ip), vehicle: Klucel (hydroxypropylcellulose) (HPC) 90 % of control | [9] 105 % of control | [10] 93 % of control and 95 % of control | [5] 97 % of control | [11] 95 % of control and 96 % of control | [6] 97 % of control

NN=C(NN)NN
inactive: dose: 100.0 mg/kg/injection, schedule: Q04DX002 (ip), vehicle: saline 98 % of control | dose: 200.0 mg/kg/injection, schedule: Q04DX002 (ip), vehicle: saline 104 % of control | dose: 400.0 mg/kg/injection, schedule: Q04DX002 (ip), vehicle: saline 104 % of control

C(=N\C(/N=C/c1ccco1)c1ccco1)/c1ccco1
inactive: [7] 94 % of control | [4] 96 % of control | [9] 105 % of control | [5] 98 % of control | [12] 97 % of control | [6] 100 % of control

O=[N+]([O-])c1ccccc1SNc1ccc(NSc2ccccc2[N+](=O)[O-])cc1
inactive: dose: 3.13 mg/kg/injection, schedule: Q01DX001 (ip), vehicle: saline with Tween-80 105 % of control | dose: 6.25 mg/kg/injection, schedule: Q01DX001 (ip), vehicle: saline with Tween-80 100 % of control | dose: 12.5 mg/kg/injection, schedule: Q01DX001 (ip), vehicle: saline with Tween-80 97 % of control

S=C(NCc1ccco1)NCc1ccco1
inactive: dose: 155.0 mg/kg/injection, schedule: Q01DX Z (ip), vehicle: methylcellulose (MC) 92 % of control | dose: 233.0 mg/kg/injection, schedule: Q01DX Z (ip), vehicle: methylcellulose (MC) 100 % of control

Nc1cc(Cl)cc(Cl)c1C(=O)O
inactive: dose: 50.0 mg/kg/injection, schedule: Q01DX009 (ip), vehicle: other 100 % of control | dose: 100.0 mg/kg/injection, schedule: Q01DX009 (ip), vehicle: other 94 % of control | [13] 90 % of control | [14] 90 % of control

COC(=O)c1cc([N+](=O)[O-])cc([N+](=O)[O-])c1Br
inactive: dose: 3.0 mg/kg/injection, schedule: Q01DX009 (ip), vehicle: saline with Tween-80 100 % of control | dose: 6.0 mg/kg/injection, schedule: Q01DX009 (ip), vehicle: saline with Tween-80 98 % of control | dose: 12.0 mg/kg/injection, schedule: Q01DX009 (ip), vehicle: saline with Tween-80 98 % of control | dose: 12.5 mg/kg/injection, schedule: Q01DX009 (ip), vehicle: Klucel (hydroxypropylcellulose) (HPC) 96 % of control | dose: 12.5 mg/kg/injection, schedule: Q04DX003 (ip), vehicle: Klucel (hydroxypropylcellulose) (HPC) 100 % of control | dose: 25.0 mg/kg/injection, schedule: Q01DX009 (ip), vehicle: Klucel (hydroxypropylcellulose) (HPC) 89 % of control | dose: 25.0 mg/kg/injection, schedule: Q04DX003 (ip), vehicle: Klucel (hydroxypropylcellulose) (HPC) 94 % of control | dose: 50.0 mg/kg/injection, schedule: Q04DX003 (ip), vehicle: Klucel (hydroxypropylcellulose) (HPC) 94 % of control

O=c1ccnc(-c2ccccc2)[nH]1
inactive: [8] 119 % of control | [10] 119 % of control | [11] 114 % of control

[Cl][Pt+2][Cl].[NH-]c1ccc([N+](=O)[O-])cc1.[NH-]c1ccc([N+](=O)[O-])cc1
inactive: [13] 102 % of control | [14] 113 % of control

Cc1ncc(CO)c(/C=N\OCc2cccc(Cl)c2)c1O
inactive: dose: 12.5 mg/kg/injection, schedule: Q01DX009 (ip), vehicle: saline 100 % of control | dose: 25.0 mg/kg/injection, schedule: Q01DX009 (ip), vehicle: saline 100 % of control

O=C1N/C(=N\OCc2ccccc2Cl)CC(NOCc2ccccc2Cl)N1 (stereo not drawn)
inactive: [15] 91 % of control | [16] 97 % of control | [17] 95 % of control

C=C1CC2(c3ccccc3)C(=O)C1(c1ccccc1)C(c1ccccc1)=C2c1ccccc1 (stereo not drawn)
inactive: dose: 50.0 mg/kg/injection, schedule: Q01DX001 (ip), vehicle: carboxymethylcellulose (CMC) 96 % of control | [2] 90 % of control | [3] 89 % of control

Cc1ccc(C(=O)OCc2ccccc2CN(C)C)cc1
inactive: [8] 94 % of control | [10] 94 % of control | [11] 102 % of control

CCOC(=O)CSC
inactive: dose: 100.0 mg/kg/injection, schedule: Q01DX009 (ip), vehicle: saline with Tween-80 99 % of control | [15] 101 % of control | dose: 200.0 mg/kg/injection, schedule: Q01DX009 (ip), vehicle: saline with Tween-80 94 % of control | [16] 106 % of control | dose: 400.0 mg/kg/injection, schedule: Q01DX009 (ip), vehicle: saline with Tween-80 100 % of control | [17] 98 % of control

O=[N+]([O-])c1ccc(F)c(CNc2ncnc3c2ncn3C2CCCCO2)c1 (stereo not drawn)
inactive: [7] 100 % of control | [9] 106 % of control | [12] 100 % of control
